From BigSolDB 2.1

Oc1ccc(/C=C/c2cc(O)cc(O)c2)cc1
solubility (mole fraction)
Settings	in THF	in acetone	in ethanol	in ethyl acetate	in isopropanol	in methanol	in n-butanol	in n-hexanol	in n-pentanol	in n-propanol
278.2 K	0.104	0.0849	0.0117	0.0062	0.0053	0.0108	0.0041	0.004	0.004	0.0068
288.2 K	0.106	0.0859	0.0139	0.0106	0.0062	0.012	0.0058	0.0052	0.0055	0.0088
298.2 K	0.109	0.0866	0.0169	0.0164	0.009	0.0135	0.0083	0.0075	0.0093	0.0113
308.2 K	0.112	0.0874	0.0198	0.0214	0.011	0.0151	0.0103	0.0087	0.0109	0.0128
318.2 K	0.114	0.0886	0.0223	0.0254	0.0138	0.0166	0.0122	0.0108	0.0143	0.0153
